Measurements reported in patent US11078228B2, “Ectonucleotidase inhibitors and methods of use thereof” (Calithera Biosciences, Inc., priority 2018, dated 2021).

Target: recombinant CD73 (Homo sapiens (Human), UniProt P21589)
Test: Assay 1: Inhibition of the CD73 enzyme in vitro (0.5 nM CD73, 30 min room temperature, Malachite Green)
Type: biochemical
Conditions: 0.5 nM CD73, 30 minutes at room temperature
Method: For measurements of soluble CD73 enzyme activity, recombinant CD73 was obtained from R&D Systems, Cat. No. 5795-EN-010. […] Reactions were allowed to proceed for 30 minutes at room temperature before the addition of 100 μL Malachite Green (Cell Signaling Technology, Cat. No. 12776). After 5 minutes at room temperature, absorbance at 630 nm was determined on a microplate spectrophotometer. The concentration of inorganic phosphate was determined using a phosphate standard curve.

Chain of recombinant CD73 (P21589 27-547): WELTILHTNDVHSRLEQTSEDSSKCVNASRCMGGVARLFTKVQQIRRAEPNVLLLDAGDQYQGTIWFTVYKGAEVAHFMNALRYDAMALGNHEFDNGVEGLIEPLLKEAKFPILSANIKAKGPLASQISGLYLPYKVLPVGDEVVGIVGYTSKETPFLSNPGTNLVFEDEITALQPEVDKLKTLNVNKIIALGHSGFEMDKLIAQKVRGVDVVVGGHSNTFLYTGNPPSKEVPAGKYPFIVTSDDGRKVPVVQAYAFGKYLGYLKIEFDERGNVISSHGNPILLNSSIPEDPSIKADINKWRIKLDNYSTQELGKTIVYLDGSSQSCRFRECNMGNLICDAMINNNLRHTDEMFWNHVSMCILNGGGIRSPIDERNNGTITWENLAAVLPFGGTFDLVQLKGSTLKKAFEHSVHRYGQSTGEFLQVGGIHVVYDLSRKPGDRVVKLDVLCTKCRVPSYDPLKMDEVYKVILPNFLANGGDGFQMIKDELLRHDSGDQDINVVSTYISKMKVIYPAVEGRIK

IC50 [nM] | SMILES
1.5 | C#C[C@@]1(O)[C@@H](COC(Cc2ccccc2)(C(=O)O)C(=O)O)O[C@@H](n2cnc3c(NCCN(CC)CC)nc(Cl)nc32)[C@@H]1O [Example 61, 2-benzyl-2-(((2R,3S,4R,5R)-5-(2-chloro-6-((2-(diethylamino)ethyl)-amino)-9H-purin-9-yl)-3-ethynyl-3,4-dihydroxytetrahydrofuran-2-yl)methoxy)-malonic acid]
0.9 | C#C[C@@]1(O)[C@@H](COC(Cc2ccccc2)(C(=O)O)C(=O)O)O[C@@H](n2cnc3c(N4CCCC4)nc(Cl)nc32)[C@@H]1O [Example 90, 2-benzyl-2-(((2R,3S,4R,5R)-5-(2-chloro-6-(pyrrolidin-1-yl)-9H-purin-9-yl)-3-ethynyl-3,4-dihydroxytetrahydrofuran-2-yl)methoxy)malonic acid]
0.3 | C#C[C@@]1(O)[C@@H](COC(Cc2ccccc2)(C(=O)O)C(=O)O)O[C@@H](n2cnc3c(NC4CCCC4)nc(Cl)nc32)[C@@H]1O [Example 91, 2-benzyl-2-(((2R,3S,4R,5R)-5-(2-chloro-6-(cyclopentylamino)-9H-purin-9-yl)-3-ethynyl-3,4-dihydroxytetrahydrofuran-2-yl)methoxy)malonic acid]
0.8 | C#C[C@@]1(O)[C@@H](COC(Cc2ccccc2)(C(=O)O)C(=O)O)O[C@@H](n2cnc3c(NCC4CC4)nc(Cl)nc32)[C@@H]1O [Example 92, 2-benzyl-2-(((2R,3S,4R,5R)-5-(2-chloro-6-((cyclopropylmethyl)amino)-9H-purin-9-yl)-3-ethynyl-3,4-dihydroxytetrahydrofuran-2-yl)methoxy)malonic acid]
1.7 | C#C[C@@]1(O)[C@@H](COC(Cc2ccccc2)(C(=O)O)C(=O)O)O[C@@H](n2cnc3c(NC(C)C)nc(Cl)nc32)[C@@H]1O [Example 93, 2-benzyl-2-(((2R,3S,4R,5R)-5-(2-chloro-6-(isopropylamino)-9H-purin-9-yl)-3-ethynyl-3,4-dihydroxytetrahydrofuran-2-yl)methoxy)malonic acid]
331 | C#C[C@@]1(O)[C@@H](COC(C(=O)O)C(=O)N2CCCC2)O[C@@H](n2cnc3c(N)nc(Cl)nc32)[C@@H]1O (stereo partly drawn) [Example 113, 2-(((2R,3S,4R,5R)-5-(6-amino-2-chloro-9H-purin-9-yl)-3-ethynyl-3,4-dihydroxytetrahydrofuran-2-yl)methoxy)-3-oxo-3-(pyrrolidin-1-yl)propanoic acid]
177 | C#C[C@@]1(O)[C@@H](COC(C(=O)O)C(=O)N2CCCC2)O[C@@H](n2cnc3c(NC4CCCC4)nc(Cl)nc32)[C@@H]1O (stereo partly drawn) [Example 114, 2-(((2R,3S,4R,5R)-5-(2-chloro-6-(cyclopentylamino)-9H-purin-9-yl)-3-ethynyl-3,4-dihydroxytetrahydrofuran-2-yl)methoxy)-3-oxo-3-(pyrrolidin-1-yl)propanoic acid]
135 | C#C[C@@]1(O)[C@@H](COC(C(N)=O)C(=O)O)O[C@@H](n2cnc3c(NC4CCCC4)nc(Cl)nc32)[C@@H]1O (stereo partly drawn) [Example 115, 3-amino-2-(((2R,3S,4R,5R)-5-(2-chloro-6-(cyclopentylamino)-9H-purin-9-yl)-3-ethynyl-3,4-dihydroxytetrahydrofuran-2-yl)methoxy)-3-oxopropanoic acid]
8050 | C#C[C@@]1(O)[C@@H](COC(C(N)=O)C(N)=O)O[C@@H](n2cnc3c(NC4CCCC4)nc(Cl)nc32)[C@@H]1O [Example 116, 2-(((2R,3S,4R,5R)-5-(2-chloro-6-(cyclopentylamino)-9H-purin-9-yl)-3-ethynyl-3,4-dihydroxytetrahydrofuran-2-yl)methoxy)malonamide]
4630 | C#C[C@@]1(O)[C@@H](COC(C(=O)O)S(C)(=O)=O)O[C@@H](n2cnc3c(NC4CCCC4)nc(Cl)nc32)[C@@H]1O (stereo partly drawn) [Example 120, 2-(((2R,3S,4R,5R)-5-(2-chloro-6-(cyclopentylamino)-9H-purin-9-yl)-3-ethynyl-3,4-dihydroxytetrahydrofuran-2-yl)methoxy)-2-(methylsulfonyl)acetic acid]
71 | C#C[C@@]1(O)[C@@H](COC(C(=O)OC)P(=O)(O)O)O[C@@H](n2cnc3c(N)nc(Cl)nc32)[C@@H]1O (stereo partly drawn) [Example 123, (1-(((2R,3S,4R,5R)-5-(6-amino-2-chloro-9H-purin-9-yl)-3-ethynyl-3,4-dihydroxytetrahydrofuran-2-yl)methoxy)-2-methoxy-2-oxoethyl)phosphonic acid]
27 | C#C[C@@]1(O)[C@@H](COC(C(=O)OCC)P(=O)(O)O)O[C@@H](n2cnc3c(N4CCOCC4)nc(Cl)nc32)[C@@H]1O (stereo partly drawn) [Example 124, (1-(((2R,3S,4R,5R)-5-(2-chloro-6-morpholino-9H-purin-9-yl)-3-ethynyl-3,4-dihydroxytetrahydrofuran-2-yl)methoxy)-2-ethoxy-2-oxoethyl)phosphonic acid]
1580 | C#C[C@@]1(O)[C@@H](COC(C(=O)O)S(=O)(=O)c2ccccc2)O[C@@H](n2cnc3c(NC4CCCC4)nc(Cl)nc32)[C@@H]1O (stereo partly drawn) [Example 129, 2-(((2R,3S,4R,5R)-5-(2-chloro-6-(cyclopentylamino)-9H-purin-9-yl)-3-ethynyl-3,4-dihydroxytetrahydrofuran-2-yl)methoxy)-2-(phenylsulfonyl)acetic acid]
320 | C#C[C@@]1(O)[C@@H](COC(C(=O)O)c2cscn2)O[C@@H](n2cnc3c(N)nc(Cl)nc32)[C@@H]1O (stereo partly drawn) [Example 179, 2-(((2R,3S,4R,5R)-5-(6-amino-2-chloro-9H-purin-9-yl)-3-ethynyl-3,4-dihydroxytetrahydrofuran-2-yl)methoxy)-2-(thiazol-4-yl)acetic acid]
24 | C#C[C@@]1(O)[C@@H](COC(Cc2cccc(C(=O)O)c2)(C(=O)O)c2cscn2)O[C@@H](n2cnc3c(N)nc(Cl)nc32)[C@@H]1O (stereo partly drawn) [Example 182, 3-(2-(((2R,3S,4R,5R)-5-(6-amino-2-chloro-9H-purin-9-yl)-3-ethynyl-3,4-dihydroxytetrahydrofuran-2-yl)methoxy)-2-carboxy-2-(thiazol-4-yl)ethyl)benzoic acid]
56 | C#C[C@@]1(O)[C@@H](COC(Cc2cccc(OC(F)(F)F)c2)(C(=O)O)c2cscn2)O[C@@H](n2cnc3c(N)nc(Cl)nc32)[C@@H]1O (stereo partly drawn) [Example 183, 2-(((2R,3S,4R,5R)-5-(6-amino-2-chloro-9H-purin-9-yl)-3-ethynyl-3,4-dihydroxytetrahydrofuran-2-yl)methoxy)-2-(thiazol-4-yl)-3-(3-(trifluoromethoxy)phenyl)propanoic acid]
10 | C#C[C@@]1(O)[C@@H](CO[C@](Cc2ccccc2)(C(=O)O)c2cscn2)O[C@@H](n2cnc3c(NC)nc(Cl)nc32)[C@@H]1O [Example 187, (S)-2-(((2R,3S,4R,5R)-5-(2-chloro-6-(methylamino)-9H-purin-9-yl)-3-ethynyl-3,4-dihydroxytetrahydrofuran-2-yl)methoxy)-3-phenyl-2-(thiazol-4-yl)propanoic acid]
134 | C#C[C@@]1(O)[C@@H](CO[C@@](Cc2ccccc2)(C(=O)O)c2cscn2)O[C@@H](n2cnc3c(NC)nc(Cl)nc32)[C@@H]1O [Example 188, (R)-2-(((2R,3S,4R,5R)-5-(2-chloro-6-(methylamino)-9H-purin-9-yl)-3-ethynyl-3,4-dihydroxytetrahydrofuran-2-yl)methoxy)-3-phenyl-2-(thiazol-4-yl)propanoic acid]
7 | C#C[C@@]1(O)[C@@H](CO[C@](Cc2ccccc2)(C(=O)O)c2nnn[nH]2)O[C@@H](n2cnc3c(N)nc(Cl)nc32)[C@@H]1O [Example 191, (S)-2-(((2R,3S,4R,5R)-5-(6-amino-2-chloro-9H-purin-9-yl)-3-ethynyl-3,4-dihydroxytetrahydrofuran-2-yl)methoxy)-3-phenyl-2-(1H-tetrazol-5-yl)propanoic acid]
25 | C#C[C@@]1(O)[C@@H](CO[C@@](Cc2ccccc2)(C(=O)O)c2nnn[nH]2)O[C@@H](n2cnc3c(N)nc(Cl)nc32)[C@@H]1O [Example 192, (R)-2-(((2R,3S,4R,5R)-5-(6-amino-2-chloro-9H-purin-9-yl)-3-ethynyl-3,4-dihydroxytetrahydrofuran-2-yl)methoxy)-3-phenyl-2-(1H-tetrazol-5-yl)propanoic acid]
236 | C#C[C@@]1(O)[C@@H](COC(C(=O)O)c2csc(C(=O)O)n2)O[C@@H](n2cnc3c(N)nc(Cl)nc32)[C@@H]1O (stereo partly drawn) [Example 195, 4-((((2R,3S,4R,5R)-5-(6-amino-2-chloro-9H-purin-9-yl)-3-ethynyl-3,4-dihydroxytetrahydrofuran-2-yl)methoxy)(carboxy)methyl)thiazole-2-carboxylic acid]
82 | C#C[C@@]1(O)[C@@H](COC(Cc2ccccc2)(C(=O)O)c2csc(C(=O)O)n2)O[C@@H](n2cnc3c(N)nc(Cl)nc32)[C@@H]1O (stereo partly drawn) [Example 196, 4-(1-(((2R,3S,4R,5R)-5-(6-amino-2-chloro-9H-purin-9-yl)-3-ethynyl-3,4-dihydroxytetrahydrofuran-2-yl)methoxy)-1-carboxy-2-phenylethyl)thiazole-2-carboxylic acid]
6090 | C[C@@]1(O)[C@@H](COC(Cc2ccc(-c3ccccc3C(=O)O)cc2)(C(=O)O)c2cscn2)O[C@@H](n2cnc3c(N)nc(Cl)nc32)[C@@H]1O (stereo partly drawn) [Example 200, 4′-(2-(((2R,3S,4R,5R)-5-(6-amino-2-chloro-9H-purin-9-yl)-3,4-dihydroxy-3-methyltetrahydrofuran-2-yl)methoxy)-2-carboxy-2-(thiazol-4-yl)ethyl)-[1,1′-biphenyl]-2-carboxylic acid]

SMILES | IC50 [nM]
C#CCC(OC[C@H]1O[C@@H](n2cnc3c(N)nc(Cl)nc32)[C@H](O)[C@@]1(O)C#C)(C(=O)O)c1cscn1 (stereo partly drawn) [Example 184, 2-(((2R,3S,4R,5R)-5-(6-amino-2-chloro-9H-purin-9-yl)-3-ethynyl-3,4-dihydroxytetrahydrofuran-2-yl)methoxy)-2-(thiazol-4-yl)pent-4-ynoic acid] | 102
